Measurements: US20200038355A1, “ANTIOXIDANTS FOR USE IN OPHTHALMIC SURGERY” (Case Western Reserve University, priority 2017, published 2020)
“Also recorded” adds a separate entry of the source.

How the values were obtained:
[1] = tested on: mouse lens ex vivo culture; assay: Mouse whole lens ex vivo culture, lens capsule immunoblot; type: cell-based; details: for αSMA production after BSO stimulation: ex vivo cultured mouse lens (lens capsule), 10 mM NAC or 0.5 mM GSH-EE with 500 μM BSO, 48 hr; for TGFβ2-mediated αSMA production: lens capsule from whole lens culture, 10 mM NAC or 0.5 mM GSH-EE with 1 ng/ml TGFβ2, 48 hr
Procedure: The isolated intact lens was rinsed three times with HBSS and then cultured in 12-well-plates with serum-free Medium 199 (ThermoFisher) with 50 unit/ml penicillin streptomycin at 37° C. in 5% CO2 incubator, as described above. The lens explant was cultured following the same procedure as described by a previous report. […] et al., Exp Eye Res 71, 591-597 (2000). In brief, the mouse lens was placed in an anterior-toposterior orientation with the anterior attached to the culture dish. The lens posterior capsule was torn/cut by the tip of extra-fine forceps and then peeled towards anterior capsule and pinned on the plastic culture dish. The lens fiber mass was removed thereafter. The explant was cultured in serum-free MEM medium supplied with 50 unit/ml penicillin streptomycin at 37° C. in 5% CO2 incubator as described above. Only healthy growing explants were used for the described study and any unhealthy looking explants, such as folded explants or those with cell detachment, were discarded. Cells were placed 24 hr before the treatment and fresh medium was replaced immediately before the treatment. The indicated concentrations of BSO, DMF, NAC, GSH-EE or TGFβ2 were added to fresh medium and incubated at various time intervals as indicated. After treatment time, the cells were harvested after three washes with ice-cold PBS and subjected to immunoblot or other assays as described below. For whole lens culture, the serum-free medium with or without BSO, NAC, GSH-EE or TGFβ2 was incubated immediately after isolation for 48 hr and the whole lens or lens capsule was collected for further analysis. For lens explant culture, 48 hr after explant culture, various stimulates were used in fresh serum-free medium for an additional 48 hr, and the explant was fixed with 10% formaldehyde for 10 min before immunofluorescence stain, as described below. The cells, whole lens, lens capsule, and lens fibers were collected and lysed in lysis buffer containing 20 mM Tris pH 7.5, 1 mM EDTA, 1 mM EGTA, 150 mM NaCl, 1% Triton X-100, 2.5 mM sodium pyrophosphate, 1 mM bα-Glycerolphosphate, 1 mM Na3VO4, 1 mg/ml Leupeptin, 1 mM PMSF on ice for 10 min. The protein concentration from the supernatant was determined by protein BCA assay (ThermoFisher). The protein extract was further processed for immunoblot analysis and probed for αSMA, collagen I, vimentin, phosphorylated Smad2, phosphorylated Smad3, phosphorylated GSK-3β and (β-catenin. All data were normalized to the level of GAPDH.

[2] = tested on: HLE-B3 cells; assay: EMT marker / Wnt-β-catenin immunoblot in human lens epithelial cell line HLE-B3; type: cell-based; details: for αSMA production after BSO stimulation: HLE-B3 cells co-treated with 10 mM NAC or 0.5 mM GSH-EE and 500 μM BSO, 24 hr; for TGFβ2-mediated αSMA production: HLE-B3 cells, 10 mM NAC or 0.5 mM GSH-EE co-incubated with 1 ng/ml TGFβ2, 24 hr; for BSO-increased Ser9 phosphorylation of GSK-3β / BSO-increased β-catenin expression: cells co-treated with 0.5 mM GSH-EE or 10 mM NAC, BSO 24 hr
Procedure: Cell Culture—Human lens epithelial cells (HLE-B3) were grown in DMEM medium with 10% fetal bovine serum (FBS), 2 mM glutamine and 50 unit/ml penicillin streptomycin (ThermoFisher, Waltham, Mass.) at 37° C. in a humidified 5% CO2 incubator. For primary porcine lens epithelial cell culture, pig eyes were collected at a local slaughterhouse within two hours of postmortem time, placed on ice and transported to the lab (about 1 hr) for immediate processing. First, the isolated lens was incubated with 2 ml of 0.25% trypsin at 37° C. for 2 min to remove any attached non-lens cells. Then, after a brief rinse with HBSS, the lens capsule was isolated and rinsed three times with HBSS before incubation with 2 ml of 0.5% trypsin for 5 min. 5 ml of complete DMEM medium was added and tissue was disrupted by pipetting up and down 10-15 times with a pipette fitted with a 1000 μl tip. The tissue homogenate was then passed through a 100 μm cell strainer. The cells were collected by low speed centrifugation at 150×g and placed in a 35 mm laminin-coated tissue culture dish with DMEM medium supplied with 10% FBS, 2 mM glutamine and 50 unit/ml penicillin streptomycin (ThernoFisher). The cells were cultured at 37° C. in a humidified incubator with 5% CO2.
Cells were placed 24 hr before the treatment and fresh medium was replaced immediately before the treatment. The indicated concentrations of BSO, DMF, NAC, GSH-EE or TGFβ2 were added to fresh medium and incubated at various time intervals as indicated. After treatment time, the cells were harvested after three washes with ice-cold PBS and subjected to immunoblot or other assays as described below. For whole lens culture, the serum-free medium with or without BSO, NAC, GSH-EE or TGFβ2 was incubated immediately after isolation for 48 hr and the whole lens or lens capsule was collected for further analysis. For lens explant culture, 48 hr after explant culture, various stimulates were used in fresh serum-free medium for an additional 48 hr, and the explant was fixed with 10% formaldehyde for 10 min before immunofluorescence stain, as described below.
The cells, whole lens, lens capsule, and lens fibers were collected and lysed in lysis buffer containing 20 mM Tris pH 7.5, 1 mM EDTA, 1 mM EGTA, 150 mM NaCl, 1% Triton X-100, 2.5 mM sodium pyrophosphate, 1 mM bα-Glycerolphosphate, 1 mM Na3VO4, 1 mg/ml Leupeptin, 1 mM PMSF on ice for 10 min. The protein concentration from the supernatant was determined by protein BCA assay (ThermoFisher). The protein extract was further processed for immunoblot analysis and probed for αSMA, collagen I, vimentin, phosphorylated Smad2, phosphorylated Smad3, phosphorylated GSK-3β and (β-catenin. All data were normalized to the level of GAPDH.

SMILES | αSMA production after BSO stimulation [1] | TGFβ2-mediated αSMA production [1] | TGFβ2-mediated αSMA production ([1]; listed as GSHEE) | αSMA production after BSO stimulation [2] | TGFβ2-mediated αSMA production [2] | BSO-increased Ser9 phosphorylation of GSK-3β [2] | BSO-increased β-catenin expression [2] | inhibitory effect on EMT process compared with GSH-EE ([2]; cell culture)
CCOC(=O)CNC(=O)[C@H](CS)NC(=O)CC[C@H](N)C(=O)O [GSH-EE, glutathione ethyl ester] | alleviated; also recorded: partially, but significantly, block | significantly alleviate | alleviated | alleviated; also recorded: partially, but significantly, block | alleviated; also recorded: significantly alleviate | alleviated | attenuate; also recorded: alleviated | –
CC(=O)N[C@@H](CS)C(=O)O [NAC, N-acetyl cysteine] | alleviated; also recorded: completely abolish | alleviated; also recorded: completely block | – | alleviated; also recorded: completely abolish | alleviated; also recorded: completely block | attenuate; also recorded: alleviated; also recorded: completely abolished | alleviated | much higher inhibitory effect than GSH-EE
